# Measured values from PMC8580996, “2-Oxoglutarate derivatives can selectively enhance or inhibit the activity of human oxygenases” (Nature Communications, 2021).
# Where “and” joins values, the source holds several entries; their conditions need not be identical. Equal entries are not always repeated.
# Molecular target: FIH (Homo sapiens, UniProt Q9NWT6)
# Assay: Mechanism of FIH inhibition: 2OG kinetics at variable concentrations of 18 (Ki, Cornish-Bowden plot)
# Assay type: biochemical
# Parameters: FIH reaction rate at variable 2OG and compound 18 concentrations (Figure 5a): unit not given here
# Procedure: Supplementary Figure 28. Determination of the FIH Kapp for 4-(3-phenylprop-1-yl)-2OG (18) (continues on […]
# the following page). […]
# (LAA), and 20 μM ammonium iron(II) sulfate hexahydrate (FAS, (NH4)2Fe(SO4)2·6H2O) in buffer (50 mM Tris, 50 mM NaCl, pH 7.5, 20° C). Measurement times were normalized to the first sample injection analyzed after the […]
# are shown as the mean of independent triplicates (n = 3; mean ± standard deviation, SD). […]
# 2OG concentrations, determined in the presence of 0.5 μM 18; (e) hydroxylation rates used for the kinetic analysis; […]
# FIH, sequence (Q9NWT6 whole entry): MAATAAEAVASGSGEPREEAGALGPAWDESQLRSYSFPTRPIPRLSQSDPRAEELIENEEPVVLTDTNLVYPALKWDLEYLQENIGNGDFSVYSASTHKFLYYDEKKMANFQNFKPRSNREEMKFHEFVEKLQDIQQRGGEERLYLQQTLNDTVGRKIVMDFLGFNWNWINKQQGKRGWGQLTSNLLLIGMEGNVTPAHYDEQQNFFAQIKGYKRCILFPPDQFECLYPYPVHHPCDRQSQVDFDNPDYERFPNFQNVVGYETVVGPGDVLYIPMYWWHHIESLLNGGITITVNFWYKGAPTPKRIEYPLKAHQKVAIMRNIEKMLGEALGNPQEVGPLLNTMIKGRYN
smiles,measurement,setting,value
"O=C(O)CCC(=O)C(=O)O [2OG, 2-Oxoglutarate]",FIH Kmapp for 2OG,"absence of 18, HIF-1α788-822",0.74 ± 0.07 µM
same,FIH vmaxapp for 2OG,"absence of 18, HIF-1α788-822",5.9 ± 0.1 10-3 μM·s-1
"O=C(O)C(=O)CC(CCCc1ccccc1)C(=O)O (centres unmarked) [compound 18, 4-(3-phenylpropyl)-2OG]","2OG concentration / rate, Cornish-Bowden plot (Figure 5b)","0.5 μM 18, 2 μM 2OG",738.825 and 619.579 and 831.947
same,"2OG concentration / rate, Cornish-Bowden plot (Figure 5b)","0.5 μM 18, 4 μM 2OG",1161.44 and 956.709 and 1175.78
same,"2OG concentration / rate, Cornish-Bowden plot (Figure 5b)","0.5 μM 18, 8 μM 2OG",1892.15 and 1526.72 and 1620.09
same,"2OG concentration / rate, Cornish-Bowden plot (Figure 5b)","0.5 μM 18, 16 μM 2OG",2827.85 and 3158.93 and 3165.81
same,"2OG concentration / rate, Cornish-Bowden plot (Figure 5b)","0.5 μM 18, 32 μM 2OG",6761.04 and 5757.47 and 6079.03
same,"2OG concentration / rate, Cornish-Bowden plot (Figure 5b)","0.5 μM 18, 64 μM 2OG",11329.4 and 12181.2 and 11500.5
same,FIH reaction rate at variable 2OG and compound 18 concentrations (Figure 5a),"0.5 μM compound 18, 0 μM 2OG",0
same,FIH reaction rate at variable 2OG and compound 18 concentrations (Figure 5a),"0.5 μM compound 18, 0.5 μM 2OG",0.000919 and 0.000982 and 0.001057
same,FIH reaction rate at variable 2OG and compound 18 concentrations (Figure 5a),"0.5 μM compound 18, 1 μM 2OG",0.001502 and 0.002201 and 0.001615
same,FIH reaction rate at variable 2OG and compound 18 concentrations (Figure 5a),"0.5 μM compound 18, 2 μM 2OG",0.002707 and 0.003228 and 0.002404
same,FIH reaction rate at variable 2OG and compound 18 concentrations (Figure 5a),"0.5 μM compound 18, 4 μM 2OG",0.003444 and 0.004181 and 0.003402
same,FIH reaction rate at variable 2OG and compound 18 concentrations (Figure 5a),"0.5 μM compound 18, 8 μM 2OG",0.004228 and 0.00524 and 0.004938
same,FIH reaction rate at variable 2OG and compound 18 concentrations (Figure 5a),"0.5 μM compound 18, 16 μM 2OG",0.005658 and 0.005065 and 0.005054
same,FIH reaction rate at variable 2OG and compound 18 concentrations (Figure 5a),"0.5 μM compound 18, 32 μM 2OG",0.004733 and 0.005558 and 0.005264
same,FIH reaction rate at variable 2OG and compound 18 concentrations (Figure 5a),"0.5 μM compound 18, 64 μM 2OG",0.005649 and 0.005254 and 0.005565
same,"2OG concentration / rate, Cornish-Bowden plot (Figure 5b)","1 μM 18, 2 μM 2OG",1398.6 and 985.222 and 1090.51
same,"2OG concentration / rate, Cornish-Bowden plot (Figure 5b)","1 μM 18, 4 μM 2OG",1161.44 and 1382.65 and 1432.15
same,"2OG concentration / rate, Cornish-Bowden plot (Figure 5b)","1 μM 18, 8 μM 2OG",2089.32 and 1965.12 and 2137.89
same,"2OG concentration / rate, Cornish-Bowden plot (Figure 5b)","1 μM 18, 16 μM 2OG",3148.99 and 3185.35 and 3256
same,"2OG concentration / rate, Cornish-Bowden plot (Figure 5b)","1 μM 18, 32 μM 2OG",5969.04 and 5882.35
same,"2OG concentration / rate, Cornish-Bowden plot (Figure 5b)","1 μM 18, 64 μM 2OG",12176.6 and 10488.4
same,FIH reaction rate at variable 2OG and compound 18 concentrations (Figure 5a),"1.0 μM compound 18, 0 μM 2OG",0
same,FIH reaction rate at variable 2OG and compound 18 concentrations (Figure 5a),"1.0 μM compound 18, 0.5 μM 2OG",0.000462 and 0.000537 and 0.000636
same,FIH reaction rate at variable 2OG and compound 18 concentrations (Figure 5a),"1.0 μM compound 18, 1 μM 2OG",0.000809 and 0.001158 and 0.001225
same,FIH reaction rate at variable 2OG and compound 18 concentrations (Figure 5a),"1.0 μM compound 18, 2 μM 2OG",0.00143 and 0.00203 and 0.001834
same,FIH reaction rate at variable 2OG and compound 18 concentrations (Figure 5a),"1.0 μM compound 18, 4 μM 2OG",0.003444 and 0.002893 and 0.002793
same,FIH reaction rate at variable 2OG and compound 18 concentrations (Figure 5a),"1.0 μM compound 18, 8 μM 2OG",0.003829 and 0.004071 and 0.003742
same,FIH reaction rate at variable 2OG and compound 18 concentrations (Figure 5a),"1.0 μM compound 18, 16 μM 2OG",0.005081 and 0.005023 and 0.004914
same,FIH reaction rate at variable 2OG and compound 18 concentrations (Figure 5a),"1.0 μM compound 18, 32 μM 2OG",0.005361 and 0.00544
same,FIH reaction rate at variable 2OG and compound 18 concentrations (Figure 5a),"1.0 μM compound 18, 64 μM 2OG",0.005256 and 0.006102
same,"2OG concentration / rate, Cornish-Bowden plot (Figure 5b)","2 μM 18, 2 μM 2OG",2902.76 and 2272.73 and 1572.33
same,"2OG concentration / rate, Cornish-Bowden plot (Figure 5b)","2 μM 18, 4 μM 2OG",2503.13 and 2493.77 and 2115.28
same,"2OG concentration / rate, Cornish-Bowden plot (Figure 5b)","2 μM 18, 8 μM 2OG",3164.56 and 2950.94 and 2606.71
same,"2OG concentration / rate, Cornish-Bowden plot (Figure 5b)","2 μM 18, 16 μM 2OG",5053.7 and 4190.68 and 4087.89
same,"2OG concentration / rate, Cornish-Bowden plot (Figure 5b)","2 μM 18, 32 μM 2OG",7228.37 and 7157.24 and 7025.25
same,"2OG concentration / rate, Cornish-Bowden plot (Figure 5b)","2 μM 18, 64 μM 2OG",11617.4 and 13556.5
same,FIH reaction rate at variable 2OG and compound 18 concentrations (Figure 5a),"2.0 μM compound 18, 0 μM 2OG",0
same,FIH reaction rate at variable 2OG and compound 18 concentrations (Figure 5a),"2.0 μM compound 18, 1 μM 2OG",0.000474 and 0.000421 and 0.000679
same,FIH reaction rate at variable 2OG and compound 18 concentrations (Figure 5a),"2.0 μM compound 18, 2 μM 2OG",0.000689 and 0.00088 and 0.001272
same,FIH reaction rate at variable 2OG and compound 18 concentrations (Figure 5a),"2.0 μM compound 18, 4 μM 2OG",0.001598 and 0.001604 and 0.001891
same,FIH reaction rate at variable 2OG and compound 18 concentrations (Figure 5a),"2.0 μM compound 18, 8 μM 2OG",0.002528 and 0.002711 and 0.003069
same,FIH reaction rate at variable 2OG and compound 18 concentrations (Figure 5a),"2.0 μM compound 18, 16 μM 2OG",0.003166 and 0.003818 and 0.003914
same,FIH reaction rate at variable 2OG and compound 18 concentrations (Figure 5a),"2.0 μM compound 18, 32 μM 2OG",0.004427 and 0.004471 and 0.004555
same,FIH reaction rate at variable 2OG and compound 18 concentrations (Figure 5a),"2.0 μM compound 18, 64 μM 2OG",0.005509 and 0.004721
same,"2OG concentration / rate, Cornish-Bowden plot (Figure 5b)","4 μM 18, 2 μM 2OG",4319.65 and 4926.11 and 3120.12
same,"2OG concentration / rate, Cornish-Bowden plot (Figure 5b)","4 μM 18, 4 μM 2OG",4866.18 and 5181.35 and 3610.11
same,"2OG concentration / rate, Cornish-Bowden plot (Figure 5b)","4 μM 18, 8 μM 2OG",5025.13 and 6092.92
same,"2OG concentration / rate, Cornish-Bowden plot (Figure 5b)","4 μM 18, 16 μM 2OG",7045.35 and 7289.29 and 6153.85
same,"2OG concentration / rate, Cornish-Bowden plot (Figure 5b)","4 μM 18, 32 μM 2OG",9395.18 and 8886.42 and 8623.01
same,"2OG concentration / rate, Cornish-Bowden plot (Figure 5b)","4 μM 18, 64 μM 2OG",15241.7 and 14522.4 and 14719.4
same,FIH reaction rate at variable 2OG and compound 18 concentrations (Figure 5a),"4.0 μM compound 18, 0 μM 2OG",0
same,FIH reaction rate at variable 2OG and compound 18 concentrations (Figure 5a),"4.0 μM compound 18, 2 μM 2OG",0.000463 and 0.000406 and 0.000641
same,FIH reaction rate at variable 2OG and compound 18 concentrations (Figure 5a),"4.0 μM compound 18, 4 μM 2OG",0.000822 and 0.000772 and 0.001108
same,FIH reaction rate at variable 2OG and compound 18 concentrations (Figure 5a),"4.0 μM compound 18, 8 μM 2OG",0.001592 and 0.001313 and 0.00107
same,FIH reaction rate at variable 2OG and compound 18 concentrations (Figure 5a),"4.0 μM compound 18, 16 μM 2OG",0.002271 and 0.002195 and 0.0026
same,FIH reaction rate at variable 2OG and compound 18 concentrations (Figure 5a),"4.0 μM compound 18, 32 μM 2OG",0.003406 and 0.003601 and 0.003711
same,FIH reaction rate at variable 2OG and compound 18 concentrations (Figure 5a),"4.0 μM compound 18, 64 μM 2OG",0.004199 and 0.004407 and 0.004348
same,Ki,"non-linear regression, HIF-1α788–822, 2OG-competitive",~200 nM
same,FIH Kmapp for 2OG,presence of 0.5 μM 18,2.12 ± 0.20 µM
same,FIH vmaxapp for 2OG,presence of 0.5 μM 18,5.8 ± 0.1 10-3 μM·s-1
same,FIH Kmapp for 2OG,presence of 1.0 μM 18,4.58 ± 0.34 µM
same,FIH vmaxapp for 2OG,presence of 1.0 μM 18,6.2 ± 0.1 10-3 μM·s-1
same,FIH Kmapp for 2OG,presence of 2.0 μM 18,9.62 ± 0.91 µM
same,FIH vmaxapp for 2OG,presence of 2.0 μM 18,5.9 ± 0.2 10-3 μM·s-1
same,FIH Kmapp for 2OG,presence of 4.0 μM 18,25.1 ± 2.5 µM
same,FIH vmaxapp for 2OG,presence of 4.0 μM 18,6.1 ± 0.3 10-3 μM·s-1
